Test results as given in US20090306392A1, “GSM INTERMEDIATES” (priority 2007, published 2009).

System: γ-secretase
Experiment: Screening for γ-secretase-modulating activity in SKNBE2 cells carrying APP 695-wild type
Assay type: cell-based
Details: SKNBE2 cells carrying the APP 695-wild type; for EC50: read-out: EC 50 WTAPP

Compound	EC50 [nM]	% @ 0.3 uM (WTAPP) (0.3 uM) [% @ 0.3 uM]
CC(C)CC(C(=O)O)c1cc(NC(=O)c2cccc(C(F)(F)F)c2)cc(-c2ccc(C(F)(F)F)cc2)c1 (centres unmarked) [Example 25, 4-Methyl-2-[4′-trifluoromethyl-5-(3-trifluoromethyl-benzoylamino)-biphenyl-3-yl]-pentanoic Acid]	1790	
CC(C)CC(C(=O)O)c1cc(-c2ccc(C(F)(F)F)cc2)cc(C2CCCC(C(F)(F)F)N2)c1 (centres unmarked) [Example 27, 4-Methyl-2-[4′-trifluoromethyl-5-(6-trifluoromethyl-piperidin-2-yl)-biphenyl-3-yl]-pentanoic Acid]	700	
CC(C)CCN(Cc1cc(-c2ccc(C(F)(F)F)cc2)cc(C(CC(C)C)C(=O)O)c1)Cc1cc(F)c(F)c(F)c1 (centres unmarked) [Example 29, 4-Methyl-2-(5-{[(3-methyl-butyl)-(3,4,5-trifluoro-benzyl)-amino]-methyl}-4′-trifluoromethyl-biphenyl-3-yl)-pentanoic Acid]	270	
CC(C)CC(C(=O)O)c1cc(-c2ccc(C(F)(F)F)cc2)cc(C2CCN(Cc3ccc(C(F)(F)F)cc3)CC2)c1 (centres unmarked) [Example 31, 4-Methyl-2-{4′-trifluoromethyl-5-[1-(4-trifluoromethyl-benzyl)-piperidin-4-yl]-biphenyl-3-yl}-pentanoic Acid]		8
CC(C)CCC(c1ccc(C(F)(F)F)cc1)N1CCC(c2cc(-c3ccc(C(F)(F)F)cc3)cc(C(CC(C)C)C(=O)O)c2)CC1 (centres unmarked) [Example 32, 4-Methyl-2-(5-{1-[4-methyl-1-(4-trifluoromethyl-phenyl)-pentyl]-piperidin-4-yl}-4′-trifluoromethyl-biphenyl-3-yl)-pentanoic Acid]	2080	
CC(C)CCC(Nc1cc(-c2ccc(C(F)(F)F)cc2)cc(C(CC(C)C)C(=O)O)c1)c1cc(F)cc(F)c1 (centres unmarked) [Example 34, 2-{5-[1-(3,5-Difluoro-phenyl)-4-methyl-pentylamino]-4′-trifluoromethyl-biphenyl-3-yl}-4-methyl-pentanoic Acid]	330	
CC(C)CC(C(=O)O)c1cc(-c2ccc(C(F)(F)F)cc2)cc(C2CCCN(Cc3ccc(C(F)(F)F)cc3)C2)c1 (centres unmarked) [Example 36, 4-Methyl-2-{4′-trifluoromethyl-5-[1-(4-trifluoromethyl-benzyl)-piperidin-3-yl]-biphenyl-3-yl}-pentanoic Acid]	510	
(S*)4-Methyl-2-(5-{1-[4-methyl-1-(4-trifluoromethyl-phenyl)-pentyl]-piperidin-3-yl}-4′-trifluoromethyl-biphenyl-3-yl)-pentanoic Acid [Example 38]	450	

More lines, in order of falling EC50, values ahead:

EC50 [nM]	Compound	% @ 0.3 uM (WTAPP) (0.3 uM) [% @ 0.3 uM]
250	CC(C)CCN(Cc1cc(-c2ccc(C(F)(F)F)cc2)cc(C(CC(C)C)C(=O)O)c1)Cc1cc(C(F)(F)F)cc(C(F)(F)F)c1 (centres unmarked) [Example 30, 2-(5-{[(3,5-Bis-trifluoromethyl-benzyl)-(3-methyl-butyl)-amino]-methyl}-4′-trifluoromethyl-biphenyl-3-yl)-4-methyl-pentanoic Acid]	
220	CC(C)CCC(Nc1cc(-c2ccc(C(F)(F)F)cc2)cc(C(CC(C)C)C(=O)O)c1)c1cc(C(F)(F)F)cc(C(F)(F)F)c1 (centres unmarked) [Example 39, 2-{5-[1-(3,5-Bis-trifluoromethyl-phenyl)-4-methyl-pentylamino]-4′-trifluoromethyl-biphenyl-3-yl}-4-methyl-pentanoic Acid]	
210	CC(C)CC(C(=O)O)c1cc(CCc2ccc(-c3ccccc3)cc2)cc(-c2ccc(C(F)(F)F)cc2)c1 (centres unmarked) [Example 24, 2-[5-(2-Biphenyl-4-yl-ethyl)-4′-trifluoromethyl-biphenyl-3-yl]-4-methyl-pentanoic Acid]	
190	CC(C)CCN(Cc1cc(F)cc(F)c1)c1cc(-c2ccc(C(F)(F)F)cc2)cc([C@@H](CC(C)C)C(=O)O)c1 [Example 40, 2-{5-[(3,5-Difluoro-benzyl)-(3-methyl-butyl)-amino]-4′-trifluoromethyl-biphenyl-3-yl}-4-methyl-pentanoic Acid]	
110	CC(C)CCN1C(c2cc(-c3ccc(C(F)(F)F)cc3)cc(C(CC(C)C)C(=O)O)c2)CCCC1C(F)(F)F (centres unmarked) [Example 28, 4-Methyl-2-{5-[1-(3-methyl-butyl)-6-trifluoromethyl-piperidin-2-yl]-4′-trifluoromethyl-biphenyl-3-yl}-pentanoic Acid]	
64	CC(C)CC(C(=O)O)c1cc(NC2CCC(C(C)(C)C)CC2)cc(-c2ccc(C(F)(F)F)cc2)c1 (centres unmarked) [Example 33, 2-[5-(4-tert-Butyl-cyclohexylamino)-4′-trifluoromethyl-biphenyl-3-yl]-4-methyl-pentanoic Acid]	
